According to paper PMC4303209, “A novel phosphatidylinositol 3-kinase (PI3K) inhibitor directs a potent FOXO-dependent, p53-independent cell cycle arrest phenotype characterized by the differential induction of a subset of FOXO-regulated genes” (Breast Cancer Research : BCR, 2014):

Test system: MCF-7 breast cancer cells
Assay: Microarray gene expression analysis (Agilent whole human genome 4 x 44K; compound vs DMSO, LIMMA log2 fold change)
Type: cell-based
Settings: Apoptosis genes

## Cn1ncc2c(N3CCOCC3)nc(-c3cccc(O)c3)nc21 [ETP-45658]
Gene 3329
  HSPD1 log2FC: 0.324
Gene 3336
  HSPE1 log2FC: -0.110
Gene 3357
  HTR2B log2FC: -0.636
Gene 3375
  IAPP log2FC: -0.105
Gene 3397
  ID1 log2FC: -0.206
Gene 3399
  ID3 log2FC: -0.237
Gene 3428
  IFI16 log2FC: 0.357
Gene 3429
  IFI27 log2FC: -0.362
Gene 3433
  IFIT2 log2FC: 1.724
Gene 3437
  IFIT3 log2FC: 0.389
Gene 3458
  IFNG log2FC: -0.055
Gene 3476
  IGBP1 log2FC: 0.248
Gene 3479
  IGF1 log2FC: 0.046
Gene 3480
  IGF1R log2FC: 0.075
Gene 3482
  IGF2R log2FC: 0.109
Gene 3486
  IGFBP3 log2FC: -0.114
Gene 3551
  IKBKB log2FC: 0.231
Gene 3553
  IL1B log2FC: -0.057
Gene 3557
  IL1RN log2FC: -0.173
Gene 3558
  IL2 log2FC: -0.036
Gene 3565
  IL4 log2FC: -0.060
Gene 3569
  IL6 log2FC: 0.421
Gene 3570
  IL6R log2FC: 0.499
Gene 3572
  IL6ST log2FC: 0.387
Gene 3574
  IL7 log2FC: 0.329
Gene 3586
  IL10 log2FC: -0.054
Gene 3604
  TNFRSF9 log2FC: -0.082
Gene 3622
  ING2 log2FC: 0.424
Gene 3624
  INHBA log2FC: -0.426
Gene 3625
  INHBB log2FC: -1.024
Gene 3630
  INS log2FC: -0.159
Gene 3635
  INPP5D log2FC: -0.052
Gene 3640
  INSL3 log2FC: -0.299
Gene 3654
  IRAK1 log2FC: -0.289
Gene 3659
  IRF1 log2FC: -0.225
Gene 3661
  IRF3 log2FC: -0.604
Gene 3663
  IRF5 log2FC: 1.125
Gene 3665
  IRF7 log2FC: 0.214
Gene 3672
  ITGA1 log2FC: 0.199
Gene 3678
  ITGA5 log2FC: -0.764
Gene 3685
  ITGAV log2FC: 0.634
Gene 3688
  ITGB1 log2FC: 0.722
Gene 3708
  ITPR1 log2FC: 0.270
Gene 3714
  JAG2 log2FC: 0.300
Gene 3717
  JAK2 log2FC: 0.353
Gene 3718
  JAK3 log2FC: -0.320
Gene 3725
  JUN log2FC: -0.912
Gene 3778
  KCNMA1 log2FC: 0.256
Gene 3827
  KNG1 log2FC: -0.104
Gene 3836
  KPNA1 log2FC: -0.177
Gene 3837
  KPNB1 log2FC: 0.586
Gene 3856
  KRT8 log2FC: -0.518
Gene 3875
  KRT18 log2FC: -0.481
Gene 3932
  LCK log2FC: -0.268
Gene 3952
  LEP log2FC: -0.061
Gene 3963
  LGALS7 log2FC: -0.300
Gene 3981
  LIG4 log2FC: 0.100
Gene 4000
  LMNA log2FC: -0.311
Gene 4001
  LMNB1 log2FC: -0.133
Gene 4040
  LRP6 log2FC: -0.141
Gene 4055
  LTBR log2FC: -0.240
Gene 4058
  LTK log2FC: -0.048
Gene 4067
  LYN log2FC: -0.239
Gene 4088
  SMAD3 log2FC: 0.254
Gene 4091
  SMAD6 log2FC: -0.277
Gene 4118
  MAL log2FC: -0.683
Gene 4149
  MAX log2FC: -0.288
Gene 4168
  MCF2 log2FC: 0.044
Gene 4170
  MCL1 log2FC: -1.365
Gene 4192
  MDK log2FC: -0.110
Gene 4193
  MDM2 log2FC: -0.059
Gene 4204
  MECP2 log2FC: -0.162
Gene 4205
  MEF2A log2FC: -0.315
Gene 4208
  MEF2C log2FC: 0.262
Gene 4209
  MEF2D log2FC: -0.705
Gene 4217
  MAP3K5 log2FC: -0.666
Gene 4221
  MEN1 log2FC: -0.273
Gene 4254
  KITLG log2FC: -0.228
Gene 4255
  MGMT log2FC: -0.305
Gene 4282
  MIF log2FC: 0.242
Gene 4292
  MLH1 log2FC: 0.538
Gene 4293
  MAP3K9 log2FC: -0.899
Gene 4294
  MAP3K10 log2FC: 0.297
Gene 4296
  MAP3K11 log2FC: -0.949
Gene 4318
  MMP9 log2FC: -0.727
Gene 4331
  MNAT1 log2FC: 0.729
Gene 4335
  MNT log2FC: 1.624
Gene 4353
  MPO log2FC: 0.046
Gene 4435
  CITED1 log2FC: -0.078
Gene 4436
  MSH2 log2FC: 0.939
Gene 4487
  MSX1 log2FC: -0.324
Gene 4582
  MUC1 log2FC: -0.901
Gene 4583
  MUC2 log2FC: -0.262
Gene 4586
  MUC5AC log2FC: -0.379
Gene 4593
  MUSK log2FC: -0.344
Gene 4599
  MX1 log2FC: 0.147
Gene 4609
  MYC log2FC: 0.554
Gene 4615
  MYD88 log2FC: -0.689
Gene 4616
  GADD45B log2FC: 0.642
Gene 4683
  NBN log2FC: 0.839
Gene 4719
  NDUFS1 log2FC: 0.459
Gene 4763
  NF1 log2FC: 0.412
Gene 4776
  NFATC4 log2FC: 0.112
Gene 4780
  NFE2L2 log2FC: 0.727
Gene 4790
  NFKB1 log2FC: -0.122
Gene 4792
  NFKBIA log2FC: -0.281
Gene 4804
  NGFR log2FC: -0.063
Gene 4824
  NKX3-1 log2FC: -0.261
Gene 4830
  NME1 log2FC: 0.168
Gene 4831
  NME2 log2FC: 0.216
Gene 4832
  NME3 log2FC: -0.214
Gene 4836
  NMT1 log2FC: -0.046
Gene 4838
  NODAL log2FC: -0.110
Gene 4846
  NOS3 log2FC: -0.420
Gene 4853
  NOTCH2 log2FC: 0.166
Gene 4869
  NPM1 log2FC: 0.586
Gene 4884
  NPTX1 log2FC: -0.350
Gene 4889
  NPY5R log2FC: -0.068
Gene 4891
  SLC11A2 log2FC: 0.211
Gene 4893
  NRAS log2FC: -0.204
Gene 4908
  NTF3 log2FC: -1.251
Gene 4915
  NTRK2 log2FC: -0.357
Gene 4929
  NR4A2 log2FC: 0.761
Gene 4950
  OCLN log2FC: 0.639
Gene 4976
  OPA1 log2FC: 0.527
Gene 4982
  TNFRSF11B log2FC: 0.707
Gene 5008
  OSM log2FC: 0.056
Gene 5023
  P2RX1 log2FC: -0.067
Gene 5025
  P2RX4 log2FC: 0.236
Gene 5027
  P2RX7 log2FC: -0.509
Gene 5055
  SERPINB2 log2FC: -0.075
Gene 5058
  PAK1 log2FC: 0.117
Gene 5062
  PAK2 log2FC: -0.170
Gene 5071
  PARK2 log2FC: -0.177
Gene 5074
  PAWR log2FC: 0.858
Gene 5077
  PAX3 log2FC: -0.277
Gene 5078
  PAX4 log2FC: -0.139
Gene 5081
  PAX7 log2FC: -0.260
Gene 5116
  PCNT log2FC: 0.317
Gene 5133
  PDCD1 log2FC: -0.432
Gene 5134
  PDCD2 log2FC: -0.150
Gene 5136
  PDE1A log2FC: -0.227
Gene 5163
  PDK1 log2FC: 0.562
Gene 5164
  PDK2 log2FC: 1.064
Gene 5166
  PDK4 log2FC: 0.792
Gene 5170
  PDPK1 log2FC: 0.541
Gene 5245
  PHB log2FC: -0.244
Gene 5272
  SERPINB9 log2FC: -0.261
Gene 5273
  SERPINB10 log2FC: 0.731
Gene 5290
  PIK3CA log2FC: 0.795
Gene 5292
  PIM1 log2FC: 1.131
Gene 5295
  PIK3R1 log2FC: 0.328
Gene 5325
  PLAGL1 log2FC: 0.310
Gene 5326
  PLAGL2 log2FC: -1.493
Gene 5347
  PLK1 log2FC: -0.287
Gene 5359
  PLSCR1 log2FC: 0.433
Gene 5366
  PMAIP1 log2FC: -1.093
